Assays:
Assay type in all cases: physicochemical
[1] = Moisture sorption (hygroscopicity), water sorption and desorption; conditions: for form change at the completion of the moisture sorption run by PXRD: 25° C.; for Weight Gain (%) at 25° C., 60% RH: comparative summary of Forms 1, 2, 6 and 8
Experimental: Water sorption and desorption studies were conducted on an automated vapor sorption analyzer (TA instruments Q5000 SA). The microbalance was calibrated using a 100 mg standard weight. The relative humidity (RH) sensor was calibrated at 5.0, 11.3, 32.8, 52.8, 75.3, and 84.3% RH (25° C.) using saturated salt solutions. Approximately 10-20 mg of the powder sample was placed in the quartz sample holder and dried at 3% RH at 60° C. The attainment of equilibrium was assumed when the weight change of the sample was <0.001 wt % in 5 min or by a maximum equilibration time of 300 minutes. […] Again, the attainment of equilibrium was assumed when the weight change of the sample was <0.001 wt % in 5 min or by a maximum equilibration time of 300 minutes. The weight gain at 60% RH is based on the weight after the initial drying step.
Water sorption and desorption studies of PF-07220060 monohydrate (Form 2), prepared as described in Example 2, were conducted according to General Method 6.
Water sorption and desorption studies of PF-07220060 hydrate (Form 1), prepared as described in Example 5B, were conducted according to General Method 6.
Comparative hygroscopicity experiments were performed using moisture sorption analysis according to General Method 6. PF-07220060 Forms 1, 2, 6, and 8 were evaluated using moisture sorption at 25° C., 60% RH. A form change at the completion of the run was not detected for any of the forms by PXRD.

[2] = Competitive slurry experiments in 2-propanol/1% water; conditions: 2-propanol/1% water, room temperature, 15 hours, PXRD
Experimental: Competitive slurry experiments were performed between Form 1 and Form 2 (Entry 1), and between Form 6 and Form 2 (Entry 2), in 2-propanol/1% water. Entry 1: […] The solids were collected with vacuum filtration and analyzed with PXRD. PXRD data was consistent with PF-07220060 monohydrate (Form 2). Entry 2: […] The solids were collected with vacuum filtration and analyzed with PXRD. PXRD data was consistent with PF-07220060 monohydrate (Form 2).

[3] = Thermal stability by Differential Scanning Calorimetry (DSC)
Experimental: Modulated Differential scanning calorimetry (DSC) measurements were performed with Discovery DSC (TA instruments) equipped with a refrigerated cooling accessory. All the experiments were performed in standard/Tzero aluminum pans. The cell constant was determined using indium and temperature calibration was performed using indium and tin as standards. All the measurements were done under continuous dry nitrogen purge (50 mL/min). Approximately 1-5 mg of solid sample was weighed into a Tzero aluminum pan, sealed non-hermetically and heated from −40° C. to 220° C. at 10° C./min heating rate. The experimental data were analyzed using commercially available software (TA Universal Analysis 2000/Trios software, TA Instruments).
(§1) Thermal stability data were obtained through thermogravimetric analysis (TGA) according to General Method 4, and Differential Scanning Calorimetry (DSC) scan according to General Method 5A.

[4] = Thermal stability by thermogravimetric analysis (TGA)
Experimental: Thermogravimetric analysis was conducted using a Discovery TGA (TA instruments) thermogravimetric analyzer. Samples of approximately 10 mg were weighed into aluminum pans and heated from ambient ([…]) to 250° C. at 10° C./minute heating rate under nitrogen purge (10 mL/min for both sample chamber and balance).
as §1

[5] = Slurry conversion in 10% MeCN/water, form by PXRD; conditions: room temperature
Experimental: Crystalline PF-07220060 hydrate (Form 1) (25 mg) prepared as described in Example 1, Vial A was suspended in 10% MeCN/water (0.5 mL) and slurried at room temperature for […].

In the case of `CC(C)n1c(C(C)(C)O)nc2c(F)cc(-c3nc(N[C@@H]4CCOC[C@H]4O)ncc3Cl)cc21` [Form 1, 1,5-anhydro-3-({5-chloro-4-[4-fluoro-2-(2-hydroxypropan-2-yl)-1-(propan-2-yl)-1H-benzimidazol-6-yl]pyrimidin-2-yl}amino)-2,3-dideoxy-D-threo-pentitol], the “form change at the completion of the moisture sorption run by PXRD” value (from here on “form change at the completion”) ([1]; 60% RH) is reported as “not detected”, the “Weight gain (%)” value ([1]; 25 °C, RH 0%, listed as PF-07220060 hydrate (Form 1)) is reported as 0.05% and the “Weight gain (%)” value ([1]; 25 °C, RH 10%, desorption, listed as PF-07220060 hydrate (Form 1)) is reported as 1.26%. The “Weight gain (%)” value ([1]; 25 °C, RH 10%, sorption, listed as PF-07220060 hydrate (Form 1)) was 1.23%, the “Weight gain (%)” value ([1]; 25 °C, RH 20%, desorption, listed as PF-07220060 hydrate (Form 1)) was 2.38% and the “Weight gain (%)” value ([1]; 25 °C, RH 20%, sorption, listed as PF-07220060 hydrate (Form 1)) was 2.34%. The “Weight gain (%)” value ([1]; 25 °C, RH 30%, desorption, listed as PF-07220060 hydrate (Form 1)) was 2.87%, the “Weight gain (%)” value ([1]; 25 °C, RH 30%, sorption, listed as PF-07220060 hydrate (Form 1)) was 2.84% and the “Weight gain (%)” value ([1]; 25 °C, RH 40%, desorption, listed as PF-07220060 hydrate (Form 1)) was 3.13%. The “Weight gain (%)” value ([1]; 25 °C, RH 40%, sorption, listed as PF-07220060 hydrate (Form 1)) was 3.10%, the “Weight gain (%)” value ([1]; 25 °C, RH 50%, desorption, listed as PF-07220060 hydrate (Form 1)) was 3.30% and the “Weight gain (%)” value ([1]; 25 °C, RH 50%, sorption, listed as PF-07220060 hydrate (Form 1)) was 3.26%. The “Weight gain (%)” value ([1]; 25 °C, RH 60%, desorption, listed as PF-07220060 hydrate (Form 1)) was 3.41%, the “Weight gain (%)” value ([1]; 25 °C, RH 60%, sorption, listed as PF-07220060 hydrate (Form 1)) was 3.37% and the “Weight gain (%)” value ([1]; 25 °C, RH 70%, desorption, listed as PF-07220060 hydrate (Form 1)) was 3.49%. The “Weight gain (%)” value ([1]; 25 °C, RH 70%, sorption, listed as PF-07220060 hydrate (Form 1)) was 3.46%, the “Weight gain (%)” value ([1]; 25 °C, RH 80%, desorption, listed as PF-07220060 hydrate (Form 1)) was 3.55% and the “Weight gain (%)” value ([1]; 25 °C, RH 80%, sorption, listed as PF-07220060 hydrate (Form 1)) was 3.53%. For the same compound, the “Weight gain (%)” value ([1]; 25 °C, RH 90%, listed as PF-07220060 hydrate (Form 1)) was 3.61%, the “Weight gain (%)” value ([1]; 60 °C, RH 0% (initial drying step)) was 0.00% and the “Weight Gain (%) at 25° C., 60% RH” value [1] was ~3%. The Out-going form [2] was “converted to Form 2”, the “Thermal stability via DSC (° C.)” value ([3]; listed as Form 1 (hydrate)) was 0 °C and the “Thermal stability via TGA (° C.)” value ([4]; listed as Form 1 (hydrate)) was 20 °C. For the same compound, the “form after slurry by PXRD” value [5] was “converted to PF-07220060 monohydrate (Form 2)”.
In the case of `CC(C)n1c(C(C)(C)O)nc2c(F)cc(-c3nc(N[C@@H]4CCOC[C@H]4O)ncc3Cl)cc21` [Form 8, 1,5-anhydro-3-({5-chloro-4-[4-fluoro-2-(2-hydroxypropan-2-yl)-1-(propan-2-yl)-1H-benzimidazol-6-yl]pyrimidin-2-yl}amino)-2,3-dideoxy-D-threo-pentitol], the “form change at the completion” value ([1]; 60% RH) is reported as “not detected”, the “Weight Gain (%) at 25° C., 60% RH” value [1] is reported as ~2% and the “Thermal stability via DSC (° C.)” value ([3]; listed as Form 8 (amorphous)) is reported as −10 °C. The “Thermal stability via TGA (° C.)” value ([4]; listed as Form 8 (amorphous)) was 20 °C.
In the case of `CC(C)n1c(C(C)(C)O)nc2c(F)cc(-c3nc(N[C@@H]4CCOC[C@H]4O)ncc3Cl)cc21` [Form 6, 1,5-anhydro-3-({5-chloro-4-[4-fluoro-2-(2-hydroxypropan-2-yl)-1-(propan-2-yl)-1H-benzimidazol-6-yl]pyrimidin-2-yl}amino)-2,3-dideoxy-D-threo-pentitol], the “form change at the completion” value ([1]; 60% RH) is reported as “not detected”, the “Weight Gain (%) at 25° C., 60% RH” value [1] is reported as <1% and the “hygroscopicity relative to Form 8 and Form 1” value ([1]; moisture sorption at 25° C., 60% RH) is reported as “reduced hygroscopicity”. The Out-going form [2] was “converted to Form 2”, the “thermal stability relative to Form 1 and Form 8” value ([3]; TGA and DSC) was “improved thermal stability” and the “Thermal stability via DSC (° C.)” value ([3]; listed as Form 6 (anhydrous)) was 195 °C. The “Thermal stability via TGA (° C.)” value ([4]; listed as Form 6 (anhydrous)) was 195 °C.

Source: US12570641B2, “Solid forms of a CDK4 inhibitor” (Pfizer Inc., priority 2020, dated 2026)
